Patent publication US4156737A, “P-Aminomethyl-benzene-sulfonamide derivatives, process for their preparation and applications thereof” (priority 1977, dated 1979)
Structures can show the parent of a compound that is named as a salt.

What was measured:
[1] = test system: experimentally induced burns in male Sprague-Dawley rats; test: Protective action on experimentally induced burns; format: in vivo; details: for percent death rate of the burnt animals: after 48 hrs, versus reference animals or equivalent dosages of p-aminomethyl-benzene-sulfonamide; for protection compared with p-aminomethyl-benzene-sulfonamide: local; for protection compared with p-aminomethyl-benzene-sulfonamide / protective action against experimentally induced burns: 500 mg/kg; for protective action against experimentally induced burns: prior local administration
Description: The seriousness of the lesion thus induced is evaluated by means of the intravenous injection of Evans Blue, a vital dye.

treated animals = test: Chronic toxicity, laboratory, organ and histological examinations of the treated animals; format: in vivo, rats and rabbits
Excerpt: In particular, no modification was found on examination of the weight increase, of the differential leucocyte count, of azotemia, of the transaminases and of urinary excretion.
Similarly, no modification was detected on anatomopathologic and physiological examinations conducted at the level of the main organs of the treated animals.

E. coli = test: Anti-bacterial activity, agar dilutions on Mueller-Hinton medium, E. coli; format: cell-based
Description: (§1) Various tests were used to determine the anti-bacterial activity of the products of Examples 1 and 2 with respect to p-aminomethyl-benzene-sulfonamide. Said tests were effected according to the agar dilutions on Mueller-Hinton medium. The inoculum is prepared by means of an automatic Multipoint Inoculation apparatus, with a 24 hrs broth culture diluted to 1/10.
(§2) The test materials are suspended in a Twin solution.
(§3) The following germ strains were used: E. coli 130; E. coli 3671; E. coli K 12; E. coli 334; Pseudomonas 66/5; Pseudomonas 630412; Pseudomonas Paffoni; Staphylococcus 209 P; Staphylococcus 153; Pseudomonas vulgaris 66/24; Proteus marg. 66/68; Proteus mirab. 564; Proteus mirab. 250; Serrata marcescens 67/14; Salmonella 29582; Salmonella gr. B; Providencia 70/13.

skin of rabbits = test: Topical application on the skin of rabbits (tolerance); format: in vivo
Excerpt: (§4) High dosages of said products, suspended in suitable excipients, could be applied without any evidence of toxic symptons.
(§5) Application of said products was effected on the skin of animals both after depilation and after depilation and abrasion, so as to obtain continuous skin lesions.

[2] = LD50 in mice, intraperitoneal route (acute toxicity); format: in vivo; details: mouse, in vivo, ip; mice, intraperitoneal route
mice = test: as above; format: in vivo; details: for toxicity: general statement introducing LD50
skin of rats = test: Topical application on the skin of rats (tolerance); format: in vivo
Excerpt: as §4, §5

[3] = test system: germ strains (E. coli, Pseudomonas, Staphylococcus, Proteus, Serrata marcescens, Salmonella, Providencia); test: Anti-bacterial activity, agar dilutions on Mueller-Hinton medium, all germ strains; format: cell-based; details: versus p-aminomethyl-benzene-sulfonamide
Description: as §1, §2, §3

Staphylococcus = test: Anti-bacterial activity, agar dilutions on Mueller-Hinton medium, Staphylococcus; format: cell-based
Description: as §1, §2, §3

[4] = test system: holes punctured through the ears of New Zealand rabbits; test: Action on cicatrization of holes punctured through the ears of rabbits; format: in vivo; details: 10% suspension applied locally around ear hole; versus reference animals or p-aminomethyl-benzene-sulfonamide
Description: To evaluate the healing action of the products of Examples 1 and 2 holes of equal diameter were punctured through the ears of New Zealand rabbits, after which the time required for cicatrization of said holes to occur was determined in untreated reference rabbits, in rabbits treated locally around the hole punctured through the ear with a 10% p-aminomethyl-benzene-sulfonamide suspension or with a suspension of identical concentration of the products of Examples 1 and 2.

Pseudomonas = test: Anti-bacterial activity, agar dilutions on Mueller-Hinton medium, Pseudomonas; format: cell-based
Description: as §1, §2, §3

[5] = Hygroscopicity and stability of the isolated powder; format: physicochemical; details: white powder
Description: The material is allowed to rest at a temperature of 5° C. for 24 hours, after which the resulting product is filtered off.

Compound	percent death rate of the burnt animals [1]	protection compared with p-aminomethyl-benzene-sulfonamide [1]	protective action against experimentally induced burns [1]	histological examination of skin samples (treated animals; in vivo)	susceptibility of species (E. coli)	tolerance and apparent toxicity after topical application (skin of rabbits; rabbit, in vivo)	LD50 [2] [mg/kg]	toxicity (mice)	tolerance and apparent toxicity after topical application (skin of rats; rat, in vivo)	inhibiting action on the growth of the germ colonies [3]	susceptibility of species (Staphylococcus)	tissue regeneration and cicatrization [4]	susceptibility of species (Pseudomonas)	histological examination of skin samples (treated animals; chronic topical treatment, inflammatory or degenerative modification)	hygroscopicity and stability [5]	tolerance and apparent toxicity after topical application (skin of rabbits; skin of rabbits, topical)	LD50 (mice; mice, intraperitoneal route) [mg/kg]	tolerance and apparent toxicity after topical application (skin of rats; skin of rats, topical)
NCc1ccc(S(N)(=O)=O)cc1 [Example 1, p-aminomethyl-benzene-sulfonamide, silver salt]	lower	superior to that exerted by p-aminomethyl-benzene-sulfonamide	exerts a protective action against experimentally induced burns, by inhibiting or decreasing the intensity and the seriousness of the local lesions	failed to disclose any modification of inflammatory or degenerative type	particularly susceptible	equally well tolerated and free from any apparent toxicity	55	very low toxicity	equally well tolerated and free from any apparent toxicity	higher inhibiting action at lower concentrations than p-aminomethyl-benzene-sulfonamide	particularly susceptible	much more rapid than in the reference animals or in the animals treated with p-aminomethyl-benzene-sulfonamide	particularly susceptible					
p-aminomethyl-benzene-sulfonamide, zinc salt [Example 2]	lower	superior to that exerted by p-aminomethyl-benzene-sulfonamide	exerts a protective action against experimentally induced burns, by inhibiting or decreasing the intensity and the seriousness of the local lesions		particularly susceptible			very low toxicity		higher inhibiting action at lower concentrations than p-aminomethyl-benzene-sulfonamide	particularly susceptible	much more rapid than in the reference animals or in the animals treated with p-aminomethyl-benzene-sulfonamide	particularly susceptible	failed to disclose any modification of inflammatory or degenerative type	non-hygroscopic stable	equally well tolerated and free from any apparent toxicity	80	equally well tolerated and free from any apparent toxicity
